Laboratory results reported in EP1173217B1, “ENHANCED DELIVERY OF NUCLEIC ACID-BASED DRUGS” (Merrion Research I Limited, priority 1999, dated 2000).
Like-named read-outs stand apart in the source and are kept apart here.

How the values were obtained:
[1] = tested on: non-differentiated Caco-2 cells
Description: Caco-2 cells were seeded on coverslips treated with polylysine at a concentration of approximately 2.5 - 5x10^5 cells/ml and grown to confluence. Cells were washed once with PBS without Ca^2+, Mg^2+. 1-2 ml of PBS w/o Ca^2+, Mg^2+ containing antisense oligonucleotides +/- enhancers was added and cells were incubated for 30 min at 37°C. Variations to this protocol by pre-incubating cells with enhancers (40min), washing with PBS w/o Ca^2+, Mg^2+ and then incubating with antisense oligonucleotides for 30min were also analysed.
Two different FITC labelled antisense oligonucleotides were used: FITC-labelled ELNG05 (5'-[…]-3'; complementary to a sequence in the human BCR-Abl mRNA) and FITC-labelled S-PTH-05 (5'-[…]-3', complementary to sequence 153-170 of the human HPT1 receptor mRNA). […] The uptake of antisense oligonucleotides was also analysed in the absence of enhancers for variable periods of time (30min - 60min). Following incubation, cells were washed twice with PBS w/o Ca^2+, Mg^2+ and stained with 1µg/ml TexasRed-DHPE (dihexadecanoylglycerophosphoethanolamine, Molecular Probe T-1395) for 15min at 37°C, washed extensively and fixed with paraformaldeyde pH shift (Barcallo, 1995) and mounted for analysis by confocal laser scanning microscopy (CLSM).
After two washes with PBS w/o Ca^2+ and Mg^2+, the cells were incubated with 2ml of FITC-antisense oligonucleotide (ELNG05) at a concentration of 10µM in PBS w/o Ca^2+ and Mg^2+ and incubated at 37°C for 30min.
Caco-2 cells were incubated with 1ml of antisense +/- enhancers in PBS w/o Ca^2+ and Mg^2+ and incubated for 30min at 37°C. Two different fluorescently labelled antisense oligonucleotides were used in these experiments at a concentration of 10µM: ELNG05 (antisense to BCR-Ab1) and S-PTH-05 (antisense to HPT1 receptor). […] The uptake of antisense was also analysed in the absence of enhancers for 30min and 60min as control.

Caco-2 cells = conditions: cationic lipid (lipofectamine): plasmid DNA complex alone set at 100%; β-galactosidase 24 hours post transfection; enhancer concentration not given in the sentence (C8 30 or 5mM, C10 5 or 1mM tested)

CCCCCCCCCC(=O)[O-].[Na+] [C10, sodium caprate]
cell permeation / intracellular staining with TexasRed-DHPE and FITC-oligonucleotide (CLSM) ([1]; Experiment a, C10 at 10-13mM pre-incubated 40min, then 10µM FITC-ELNG05 30min): permeated completely the cells | uptake of antisense (CLSM) ([1]; Experiment b, C10 2.6 mM together with 10µM antisense, 30min): did not increase the uptake of antisense | effect on Caco-2 cell adherence ([1]; Experiment b, C10 13mM, 30min): loss of adherence of Caco-2 cells | staining of cells (CLSM) ([1]; Experiment c, C10 8mM with 10µM antisense, 30min): only punctate staining, similar to the control | staining of cells (CLSM) ([1]; Experiment c, C10 10mM with 10µM antisense, 30min): completely stained | effect on cells ([1]; Experiment c, C10 between 13mM and 8mM, 30min): destruction of cells | efficiency of transfection (Caco-2 cells): 245%
